# Patent publication EP0170121A1, “2-Hydroxy-3-aryloxypropyl or 2-hydroxy-2-benzofuranyl ethyl tertiary amine having an anti-hyperglycaemic and/or anti-obesity activity” (BEECHAM GROUP PLC, priority 1984, dated 1986)
# Counter-ions that a name gives are not always drawn. Marks after values point to notes of the source that are not given here.
# Key:
# Format in all cases: in vivo
# Female CD1 mice = assay: Effect on energy expenditure of mice (oxygen consumption, oral dosing); details: p.o. in water, percentage of the rate of energy expenditure of the mice dosed with water, dose differs per compound (Dose mg/kg p.o.); for Mean Energy Expenditure (0-3h): 0-3h after dosing; for Mean Energy Expenditure (0-21h): 0-21h after dosing
# Procedure: Female CD1 mice each weighing approximately 24 g were given food and water ad lib before and during the experiment. The compounds were dissolved in water and these solutions were administered orally to each of 12 mice. A further 12 mice were dosed orally with water. The mice were placed in groups of threes in boxes through which air was drawn and the oxygen content of the air leaving the boxes was measured. The energy expenditure of the mice was calculated for 3 and 21 hours after dosing from the volume of air leaving the boxes and its oxygen content, following the principles described by J.B. de V. Weir, J. Physiol. (London) 109, 1-9 (1949). The results are expressed as a percentage of the rate of energy expenditure of the mice dosed with water.
# Male Sprague-Dawley rats = assay: Effect on energy expenditure of rats (oxygen consumption, oral dosing); details: deprived of food, p.o. in water, percentage of the rate of energy expenditure of the rats dosed with water, dose differs per compound (Dose mg/kg p.o.); for Mean Energy Expenditure (0-3h): 0-3h after dosing; for Mean Energy Expenditure (0-21h): 0-21h after dosing
# Procedure: Male Sprague-Dawley rats each weighing between 170-200 g were deprived of food for 16 hours before, and during the experiment. Water was provided ad lib at all times. The compounds were administered orally in water to 3 or 4 rats. A further 4 rats were dosed orally with water. The rats were placed in boxes through which air was drawn and the oxygen content of the air leaving the boxes was measured. The energy expenditure of the rats was calculated for 3 hours and for 21 hours after dosing from the volume of air leaving the boxes and its oxygen content, following the principles described by J.B. de V. Weir, J. Physiol. (London) 109, 1-9 (1949). The results are expressed as a percentage of the rate of energy expenditure of the rats dosed with water.
# Female CFLP mice = assay: Hypoglycaemic activity: subcutaneous glucose load, area under blood glucose curve; details: female CFLP mice fasted 24 hours; compound orally 30 minutes before glucose 1 g/kg s.c.; 2 hour period; versus control mice given water; dose differs per compound (Dose µmol/kg)
# Procedure: Female CFLP mice, weighing approximately 25 g, were fasted for 24 hours prior to the study. The compounds under study were administered orally as an aqueous solution to each of 6 mice. 30 minutes later a blood sample (20 µl) was obtained from the tail for the analysis of blood glucose. Immediately after taking this blood sample, glucose (1 g/kg body weight) was administered subcutaneously to each mouse. 6 mice were given water as a control. Blood samples were then obtained from each mouse at 30 minute intervals for 120 minutes.
# Compounds that produced a significant (p<0.05) reduction of blood glucose, compared with control mice given water, at any time interval, were considered active. The area under the blood glucose curve over the 2 hour period after the administration of the glucose was calculated for each compound and compared with the value for control animals.
Structure (SMILES),Mean Energy Expenditure (0-3h) (Female CD1 mice) [percentage],Mean Energy Expenditure (0-21h) (Female CD1 mice) [percentage],Mean Energy Expenditure (0-3h) (Male Sprague-Dawley rats) [percentage],Mean Energy Expenditure (0-21h) (Male Sprague-Dawley rats),% Reduction in Area under Blood Glucose Curve (Female CFLP mice) [%]
"C[C@H](CCc1ccc(C(N)=O)cc1)N(C[C@H](O)COc1ccccc1)C[C@H](O)c1ccccc1 [Example 12, 4-[(R)-3-[N-(R)-2-Hydroxy-2-phenethyl-N-[(S)-2-hydroxy-3-phenoxypropyl]amino]butyl]benzamide]",111,103,139,113 percentage,28
"COC(=O)COc1ccc(CC(C)N(CC(O)COc2ccccc2)CC(O)c2cc(Cl)c(N)c(Cl)c2)cc1 (stereo not shown) [Example 29, Methyl 4-[2-[N-[2-(4-amino-3,5-dichlorophenyl)-2-bydroxy-ethyl]-N-[2-hydroxy-3-phenoxypropyl]amino]propyl]phenoxyacetate, hemifumarate]",–,–,131,122* percentage,–
"Br.C[C@H](CCc1ccc(C(N)=O)cc1)N(C[C@H](O)COc1ccccc1)C[C@H](O)COc1ccccc1.O.O [Example 13, 4-[(R)-3-[Bis-[(S)-2-hydroxy-3-phenoxypropyl]amino]butyl]-benzamide, hydrobromide, dihydrate]",103,105,108,106 percentage,15
"CCOC(=O)COc1ccc(CC[C@@H](C)N(C[C@H](O)COc2ccccc2)C[C@H](O)c2ccccc2)cc1 [Example 21, Ethyl 4-[(R)-3-[N-[(R)-2-hydroxy-2-phenethyl]-N-[(S)-2-hydroxy-3-phenoxypropyl]amino]butyl]phenoxyacetate, hydrochloride]",–,–,110,107 percentage,–
"C[C@H](COc1ccc(OCC(N)=O)cc1)N(C[C@H](O)COc1ccccc1)C[C@H](O)c1ccccc1 [Example 25, 4-[(R)-2-[N-[(R)-2-Hydroxy-2-phenethyl]-N-[(S)-2-hydroxy-3-phenoxypropyl]amino]propoxy]phenoxyacetamide, hydrochloride]",–,–,126,115 percentage,–
"CC(Cc1ccc(OCC(N)=O)cc1)N(CC(O)COc1ccccc1)CC(O)c1cc(Cl)c(N)c(Cl)c1 (stereo not shown) [Example 30, 4-[2-[N-[2-(4-Amino-3,5-dichlorophenyl)-2-hydroxyethyl]-N-[2-hydroxy-3-phenoxypropyl]amino]propyl]phenoxyacetamide]",–,–,129,116* percentage,–
"C[C@H](Cc1ccc(OCC(N)=O)cc1)N(C[C@@H](O)COc1ccccc1)C[C@H](O)c1ccc(O)cc1 [Example 28, 4-[(R)-2-[N-[(R)-2-Hydroxy-2-(4-hydroxyphenyl)ethyl]-N-[(R)-2-hydroxy-3-phenoxypropyl]amino]propyl]phenoxyacetamide]",–,–,131,117* percentage,–
"CNC(=O)c1ccc(C[C@@H](C)N(C[C@H](O)COc2ccccc2)C[C@H](O)COc2ccccc2)cc1 [Example 3, N-Methyl 4-[(R)-2-[bis-[(S)-2-hydrpxy-3-phenoxypropyl]amino]propyl]benzamide, fumarate]",133,109,114,100 percentage,12
"CNC(=O)c1ccc(C[C@@H](C)N(C[C@H](O)COc2ccccc2)C[C@H](O)c2ccccc2)cc1 [Example 6, N-Methyl 4-[(R)-2-[N'-[(R)-2-hydroxy-2-phenethyl]-N'-[(S)-2-hydroxy-3-phenoxypropyl]amino]propyl]benzamide]",126,110,112,108 percentage,13
"COC(=O)c1ccc(C[C@@H](C)N(C[C@@H](O)COc2ccccc2)C[C@H](O)c2ccccc2)cc1 [Example 5, Methyl 4-[(R)-2-[N-[(R)-2-hydroxy-2-phenethyl]-N-[(R)-2-hydroxy-3-phenoxypropyl]amino]propyl]benzoate hydrochloride]",136,112,–,–,38
"CCOC(=O)COc1ccc(C[C@@H](C)N(CC(O)c2cc3ccccc3o2)C[C@H](O)c2ccccc2)cc1 (stereo partly drawn) [Example 27, Ethyl 4-[(R)-2-[N-[(R)-2-hydroxy-2-phenethyl]-N-[2-(2-benzofuranyl)-2-hydroxyethyl]amino]propyl]phenoxyacetate hydrochloride]",–,–,134,114 percentage,–
"CCOC(=O)COc1ccc(C[C@@H](C)N(CC(O)c2cc3ccccc3o2)C[C@H](O)COc2ccccc2)cc1.Cl (stereo partly drawn) [Example 26, Ethyl 4-[(R)-2-[N-[2-(2-benzofuranyl)-2-hydroxyethyl]-N-[(S)-2-hydroxy-3-phenoxypropyl]amino]propyl]phenoxyacetate, hydrochloride]",–,–,142,117 percentage,34
"COC(=O)COc1ccc(C[C@@H](C)N(C[C@H](O)COc2ccccc2)C[C@H](O)c2ccccc2)cc1 [Example 24, Methyl 4-[(R)-2-(N-[(R)-2-hydroxy-2-phenethyl]-N-[(S)-2-hydroxy-3-phenoxypropyl]amino]propyl]phenoxyacetate, hydrochloride, hemihydrate]",–,–,146,122 percentage,–
"C[C@H](Cc1ccc(OCCO)cc1)N(C[C@H](O)COc1ccccc1)C[C@H](O)c1ccccc1 [Example 22, 4-[(R)-2-[N-[(R)-2-Hydroxy-2-phenethyl]-N-[(S)-2-hydroxy 3-phenoxypropyl]amino]propyl]phenoxyethanol, hydrochloride, hemihydrate]",–,–,120,107 percentage,–
"CNC(=O)c1ccc(C[C@@H](C)N(C[C@@H](O)COc2ccccc2)C[C@H](O)c2ccccc2)cc1 [Example 7, N-Methyl 4-[(R)-2-[N'-[(R)-2-hydroxy-2-phenethyl]-N'-[(R)-2-hydroxy-3-phenoxypropyl]amino]propyl]benzamide]",119,102,–,–,18
"COC(=O)c1ccc(C[C@@H](C)N(C[C@@H](O)COc2ccccc2)C[C@@H](O)COc2ccccc2)cc1 [Example 2, Methyl 4-[(R)-2-[bis-[(R)-2-hdroxy-3-penoxypropyl]amino]propyl]benzoate, fumarate]",122,97,114,100 percentage,–
"COC(=O)c1ccc(C[C@@H](C)N(CC(O)c2cc(Cl)c(N)c(Cl)c2)C[C@H](O)COc2ccccc2)cc1 (stereo partly drawn) [Example 10, Methyl 4-[(R)-2-[N-[2-(4-amino-3,5-dichlorophenyl]-2-hydroxyethyl]-N-[(S)-2-hydroxy-3-phenoxypropyl]amino]propyl benzoate]",121,122,–,–,31
"C[C@H](Cc1ccc(OCC(N)=O)cc1)N(C[C@H](O)COc1ccccc1)C[C@H](O)c1cccc(Cl)c1 [Example 19, 4-[(R)-2-[N-[(R)-2-(3-Chlorophenyl)-2-hydroxyethyl]-N-[(S)-2-hydroxy-3-phenoxypropyl]amino]propyl]phenoxyacetamide, hydrochloride, hemihydrate]",–,–,120,106 percentage,43
